The target of test [1] is ABCC5 transporter (Homo sapiens, UniProt O15440). Particulars: hDAT-SK-N-MC cells transfected with ABCC5; DA 50 μM for 24 hours; glipizide 250 μM or probenecid 500 μM added two hours prior to DA; MTT; FIG. 2.
Test [2] has as its target T1, ABCG4 transporter (Homo sapiens, UniProt Q9H172).
T1 construct: expressed in transfected cells; host or cells: hDAT-SK-N-MC (human neuroblastoma SK-N-MC stably expressing hDAT), transient transfection, pCEP4 or pcDNA3.1
The test can be described thus: Dopamine-induced cytotoxicity (MTT assay) in hDAT cells transiently transfected with ABCG4, in the presence of ABC transporter inhibitors. The conditions noted are these: hDAT-SK-N-MC cells transfected with ABCG4, DA 50 μM for 24 hours, glipizide 250 μM or probenecid 500 μM added two hours prior to DA, FIG. 2. It is filed as cell-based. (Tetrazolium assays rely on reduction of a dye to a coloured formazan, in cell work by metabolically active cells.)

T1 sequence (Q9H172 whole entry): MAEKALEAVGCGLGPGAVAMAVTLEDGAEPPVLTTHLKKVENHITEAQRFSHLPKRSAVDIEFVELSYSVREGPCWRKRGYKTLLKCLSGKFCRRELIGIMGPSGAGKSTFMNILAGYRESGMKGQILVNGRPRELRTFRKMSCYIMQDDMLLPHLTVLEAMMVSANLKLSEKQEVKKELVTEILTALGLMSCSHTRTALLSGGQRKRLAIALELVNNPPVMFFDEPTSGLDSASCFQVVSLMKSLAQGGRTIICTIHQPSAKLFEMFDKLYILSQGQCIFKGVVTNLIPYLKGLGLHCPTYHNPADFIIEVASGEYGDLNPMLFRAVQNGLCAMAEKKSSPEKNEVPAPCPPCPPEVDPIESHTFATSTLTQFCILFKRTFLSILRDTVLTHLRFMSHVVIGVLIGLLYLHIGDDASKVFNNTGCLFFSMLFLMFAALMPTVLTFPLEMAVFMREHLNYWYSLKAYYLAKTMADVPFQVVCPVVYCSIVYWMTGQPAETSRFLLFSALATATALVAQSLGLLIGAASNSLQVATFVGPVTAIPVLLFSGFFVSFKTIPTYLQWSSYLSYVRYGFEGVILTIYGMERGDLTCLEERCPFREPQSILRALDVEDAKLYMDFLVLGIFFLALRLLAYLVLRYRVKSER
Sequence of ABCC5 transporter (O15440 whole entry): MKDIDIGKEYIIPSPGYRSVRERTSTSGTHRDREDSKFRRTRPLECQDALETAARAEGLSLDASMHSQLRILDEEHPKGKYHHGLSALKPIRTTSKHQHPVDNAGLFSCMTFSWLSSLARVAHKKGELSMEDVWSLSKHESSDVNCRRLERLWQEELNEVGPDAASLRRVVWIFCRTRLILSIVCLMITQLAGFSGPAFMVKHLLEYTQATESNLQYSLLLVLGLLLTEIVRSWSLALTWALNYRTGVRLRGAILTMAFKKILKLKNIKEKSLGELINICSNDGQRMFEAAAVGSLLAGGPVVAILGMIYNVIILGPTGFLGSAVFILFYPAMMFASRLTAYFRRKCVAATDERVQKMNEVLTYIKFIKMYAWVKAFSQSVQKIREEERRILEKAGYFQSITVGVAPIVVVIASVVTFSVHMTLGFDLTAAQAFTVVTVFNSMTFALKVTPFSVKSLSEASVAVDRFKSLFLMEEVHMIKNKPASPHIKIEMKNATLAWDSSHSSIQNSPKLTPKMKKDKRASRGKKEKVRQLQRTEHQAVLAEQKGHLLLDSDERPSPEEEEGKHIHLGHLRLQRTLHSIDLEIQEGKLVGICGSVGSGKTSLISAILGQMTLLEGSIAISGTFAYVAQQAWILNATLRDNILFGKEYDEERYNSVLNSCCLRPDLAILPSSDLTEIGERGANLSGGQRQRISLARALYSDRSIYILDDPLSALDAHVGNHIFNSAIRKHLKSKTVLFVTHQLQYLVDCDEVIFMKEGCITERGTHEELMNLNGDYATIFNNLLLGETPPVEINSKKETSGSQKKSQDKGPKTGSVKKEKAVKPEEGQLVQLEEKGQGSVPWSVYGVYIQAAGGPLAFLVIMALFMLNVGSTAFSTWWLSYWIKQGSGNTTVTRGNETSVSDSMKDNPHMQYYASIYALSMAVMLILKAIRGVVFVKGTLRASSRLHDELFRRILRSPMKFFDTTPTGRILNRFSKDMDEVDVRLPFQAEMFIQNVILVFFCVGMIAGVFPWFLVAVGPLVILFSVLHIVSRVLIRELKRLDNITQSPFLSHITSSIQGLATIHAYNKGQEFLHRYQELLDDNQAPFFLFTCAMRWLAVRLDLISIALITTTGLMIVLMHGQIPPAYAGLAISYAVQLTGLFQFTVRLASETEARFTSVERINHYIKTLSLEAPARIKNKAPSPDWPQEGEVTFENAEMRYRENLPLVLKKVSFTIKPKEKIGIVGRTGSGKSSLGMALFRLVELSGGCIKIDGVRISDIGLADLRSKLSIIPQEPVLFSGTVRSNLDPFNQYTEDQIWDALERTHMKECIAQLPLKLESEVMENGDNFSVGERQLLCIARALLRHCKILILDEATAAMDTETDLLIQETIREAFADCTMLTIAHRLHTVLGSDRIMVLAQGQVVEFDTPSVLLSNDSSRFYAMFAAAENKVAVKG

In the case of `CCCN(CCC)S(=O)(=O)c1ccc(C(=O)O)cc1` [probenecid], in test [1], the “effect on the protective effect of ABCC5 against dopamine-induced toxicity” value was “reversed the protective effect”. In addition, the “effect on the protective effect of ABCG4 against dopamine-induced toxicity” value in test [2] is reported as “reversed the protective effect”.

(Values after patent US20020192821A1, “Increased functional activity and/or expression of ABC transporters protects against the loss of dopamine neurons associated with Parkinson's disease” (Active Pass Pharmaceuticals, Inc., priority 2001, published 2002).)
